# Data reported in patent publication US12180198B2, “Ribocil C antibiotics effective for Gram-negative pathogens” (THE BOARD OF TRUSTEES OF THE UNIVERSITY OF ILLINOIS, priority 2018, dated 2024).
# Where a name gives a salt, the structure may show the parent alone. Read-outs that look alike come from different tables or passages of the source.
# Tests used:
# H. sapiens IMR-90 = experiment: Cell viability, Alamar Blue; format: cell-based
# Protocol: Cell culture. IMR90 cells were obtained from ATCC. IMR90 cells were grown in EMEM with 10% fetal bovine serum (Gemini Benchmark, Cat #100-106), 100 U/mL penicillin, and 100 μg/mL streptomycin. All cells were cultured at 37° C. in a 5% CO2 environment. Media was prepared by the University of Illinois School of Chemical Sciences Cell Media Facility. Sex and age of cell lines: IMR90 ([…]).
# Cell viability. Cells seeded (IMR90: 5,000 cells/well) a 96-well plate (Greiner Bio-One, Cat #655180) and were allowed to attach overnight. Cells were treated with investigational compounds in DMSO (30 μM, 1% DMSO final, 100 μL/well). Raptinal (100 μM) was used as a dead control. After 24 h post-treatment, media was exchanged with compound-free media. After 72 h post-treatment, cell viability was assessed using the Alamar Blue method. Stock Alamar Blue solution [10 μL, 440 μM resazurin (Sigma-Aldrich, Cat #R7017) in sterile 1×PBS] was added to each well, and plate was incubated […]. Conversion of Alamar Blue was measured with plate reader (SpectraMax M3, Molecular Devices) by fluorescence (ex 555 nm, em 585 nm, cutoff 570 nm, autogain). Percent death was determined by normalizing to DMSO-treated cells and raptinal-treated cells.
# E. coli BAA-2469 = experiment: Bioactivity against exemplary strains of bacteria (Table 5A); format: cell-based; parameters: unit not given here; conditions: Strain 2: E. coli BAA-2469
# E. coli FabI = E. coli FabI (Escherichia coli, UniProt P0AEK4); experiment: In vitro FabI inhibition assay; format: biochemical; conditions: 20 nM enzyme
# Protocol: Expression and purification of E. coli FabI. E. coli BL21 (DE3) pLysS (Novagen) were transformed with pET15-ecFabI. Overnight culture (10 mL) in LB supplemented with 50 μg/mL ampicillin from single colony was diluted into 1 L LB+50 μg/mL ampicillin. Cells were grown at 37° C., 250 rpm until OD600 reached 0.8. Culture was cooled to 18° C. and induced with 0.5 mM IPTG for 18 h at 18° C. Cells were harvested by centrifugation (5,000×g, 10 min, 4° C.). Cell pellets were flash frozen and store at −20° C. pending purification. Frozen cell pellets were thawed on ice and resuspended (5 mL per gram wet pellet, typically 20-30 mL) with 0.5% CHAPS, 1 mM PMSF, 1 μg/mL leupeptin, 1 μg/mL pepstatin A, and 2 μg/mL aprotinin in binding buffer [20 mM Tris (pH 7.9), 500 mM NaCl, 5 mM imidazole]. Cells were lysed by sonication on ice (30%, 10 s pulse, 20 s rest, 5 min total). Lysate was clarified by centrifugation (35,000×g, 1 h, 4° C.) and filtration through 0.2 μm syringe filter. Lysate was incubated with 5 mL Co-NTA agarose (HisPur cobalt resin, Thermo-Fisher Scientific Cat #89965, pre-equilibrated with binding buffer) for 30 min at 4° C. with gentle rocking. Agarose-containing lysate was transferred to column and flow through discarded. Column was washed with 2 column volumes of binding buffer followed by 10 column volumes of wash buffer [20 mM Tris (pH 7.9), 500 mM NaCl, 60 mM imidazole]. Protein was eluted with 15 mL elution buffer [20 mM Tris (pH 7.9), 500 mM NaCl, 300 mM imidazole]. […] Protein concentration was determined by BCA assay (ThermoFisher Cat #23227).
# In vitro FabI inhibition assay. […] Plate was placed in plate-reader (SpectraMax 190, Molecular Devices) under temperature control (25° C.), and temperature was allowed to equilibrate. […] After shaking for 5 s, reaction progress was monitored by absorbance at 340 nm every 15 s for 90 min. Linear portion of reaction progress curve was fit using plate-reader software (SoftMax Pro 7.0). Percent activity was calculated relative to DMSO-only and no-enzyme controls in each plate. […]
# K. pneumoniae BAA-2470 = experiment: MIC, micro-dilution broth method; format: cell-based; conditions: Klebsiella pneumoniae, BAA2470
# Protocol: (§1) Compounds were evaluated against a panel of Gram-positive and Gram-negative organisms. MIC values were determined using the micro-dilution broth method as outlined by the Clinical and Laboratory Standards Institute (clsi.org/) and are listed in […]. All experiments were performed in biological triplicate.
# (§2) Antimicrobial susceptibility tests. Susceptibility testing was performed in biological triplicate, using the micro-dilution broth method as outlined by the Clinical and Laboratory Standards Institute. Bacteria were cultured with cation-adjusted Muller-Hinton broth (Sigma-Aldrich, Cat #90922) in round-bottom 96-well plates (Corning, Cat #3788). Human serum (pooled gender, 0.2 μm filtered) was purchased from BioIVT (Hicksville, NY).
# E. coli F20987 = experiment: MIC, micro-dilution broth method; format: cell-based; conditions: Escherichia coli
# Protocol: as §1, §2
# K. pneumoniae BAA-2472 = experiment: MIC, micro-dilution broth method; format: cell-based; conditions: Klebsiella pneumoniae, BAA2472
# Protocol: as §1, §2
# A. baumannii KB304 = experiment: MIC, micro-dilution broth method; format: cell-based; conditions: Acinetobacter baumannii
# Protocol: as §1, §2
# [1] = system: E. coli strains with intact outer membranes; experiment: MIC, micro-dilution broth method (text summary); format: cell-based; conditions: Escherichia coli
# Protocol: FIG. 2. Antimicrobial activity of Debio-1452 and derivatives. MIC values were determined using the micro-dilution broth method as outlined by the Clinical and Laboratory Standards Institute (clsi.org/). All experiments were performed in biological triplicate.
# as §2
# A. baumannii BAA-2093 = experiment: Bioactivity against exemplary strains of bacteria (Table 5A); format: cell-based; conditions: Strain 3: A. baumannii BAA-2093
# K. pneumoniae BAA-2146 = experiment: as above; format: cell-based; conditions: Strain 4: K. pneumoniae BAA-2146
# E. coli FabI, sequence (P0AEK4 whole entry): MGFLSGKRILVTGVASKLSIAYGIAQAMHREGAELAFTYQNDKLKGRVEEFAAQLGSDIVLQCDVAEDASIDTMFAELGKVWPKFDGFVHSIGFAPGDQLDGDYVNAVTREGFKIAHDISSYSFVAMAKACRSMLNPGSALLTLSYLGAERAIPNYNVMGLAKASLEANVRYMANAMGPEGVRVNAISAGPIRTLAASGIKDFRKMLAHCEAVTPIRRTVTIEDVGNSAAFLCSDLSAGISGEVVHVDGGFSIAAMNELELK
SMILES,"inhibition at 30 µM (H. sapiens IMR-90; H. sapiens IMR-90, 30 μM, 24 h exposure, viability at 72 h, read-out: % inhibition at 30 μM) [%]",Bioactivity (E. coli BAA-2469),inhibition of E. coli FabI in vitro (in words) (E. coli FabI),"MIC (K. pneumoniae BAA-2470; K. pneumoniae BAA-2470, read-out: MIC) [µg/mL]","MIC (E. coli F20987; E. coli F20987, read-out: MIC) [µg/mL]","MIC (K. pneumoniae BAA-2472; K. pneumoniae BAA-2472, read-out: MIC) [µg/mL]","MIC (A. baumannii KB304; A. baumannii KB304, read-out: MIC) [µg/mL]","MIC ([1]; E. coli strains with intact outer membranes, read-out: MIC) [µg/mL]",Bioactivity (A. baumannii BAA-2093),Bioactivity (K. pneumoniae BAA-2146),toxicity to mammalian cells grown in culture (in words) (H. sapiens IMR-90; 24 hour exposures),"inhibition at 30 µM (H. sapiens IMR-90; Homo sapiens, IMR-90, read-out: % inhibition at 30 μM) [%]",MIC (K. pneumoniae BAA-2470) [µg/mL],MIC (E. coli F20987; F20987) [µg/mL],MIC (K. pneumoniae BAA-2472) [µg/mL],MIC (A. baumannii KB304; KB304) [µg/mL],MIC [1] [µg/mL]
"Cc1c(CN(C)C(=O)/C=C/c2cnc3c(c2)CCC(=O)N3)oc2ccccc12 [Debio-1452, (E)-N-methyl-N-((3-methylbenzofuran-2-yl)methyl)-3-(7-oxo-5,6,7,8-tetrahydro-1,8-naphthyridin-3-yl)acrylamide, reference compound]",16,>32,potent FabI inhibitors,8,> 32,> 32,> 32,> 32,16,>32,,,,,,,
"Cc1c(CN(C)C(=O)/C=C/c2cnc3c(c2)CC(N)C(=O)N3)oc2ccccc12 (stereo not drawn) [Debio-1452-NH3, (E)-3-(6-amino-7-oxo-5,6,7,8-tetrahydro-1,8-naphthyridin-3-yl)-N-methyl-N-((3-methylbenzofuran-2-yl)methyl)acrylamide hydrochloride]",,4,potent FabI inhibitors,,,,,,4,32,little toxicity,30,4,4,16,64,4
